molecular target: T1, human recombinant A3AR (expressed in HEK-293 cells) (Homo sapiens, UniProt P0DMS8); assay: Adenosine receptors antagonism assay (Eurofins), [125I]-AB-MECA radioligand competition; assay type: binding; details: [125I]-AB-MECA 0.15 nM, r.t., 120 min; IC50 from dose-response curves; read-out: Potency Class A3AR
T1 construct: host or cells: HEK-293 cells
T1 sequence (P0DMS8 1-318): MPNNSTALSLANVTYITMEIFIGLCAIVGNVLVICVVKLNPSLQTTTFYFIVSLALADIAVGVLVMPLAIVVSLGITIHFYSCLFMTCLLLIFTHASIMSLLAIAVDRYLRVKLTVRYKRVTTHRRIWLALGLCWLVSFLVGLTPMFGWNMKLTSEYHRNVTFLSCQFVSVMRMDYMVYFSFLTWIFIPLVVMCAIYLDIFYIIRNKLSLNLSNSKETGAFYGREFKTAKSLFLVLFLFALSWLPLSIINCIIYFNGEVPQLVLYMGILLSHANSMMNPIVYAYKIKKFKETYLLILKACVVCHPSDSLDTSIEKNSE

IC50 [nM]	Compound
10 to 100	c1ccc(CNc2cc(NCC3CC3)nn3c(C4CC4)nnc23)nc1 [compound 203, 3-cyclopropyl-N6-(cyclopropylmethyl)-N8-(pyridin-2-ylmethyl)-[1,2,4]triazolo[4,3-b]pyridazine-6,8-diamine]
10 to 100	CC(C)c1nnc2c(NCc3ccccc3O)cc(NC3CCOCC3)nn12 [compound 44, 2-[[[3-isopropyl-6-(tetrahydropyran-4-ylamino)-[1,2,4]triazolo[4,3-b]pyridazin-8-yl]amino]methyl]phenol]
< 1	CCC(CC)Nc1cc(NCCc2ccccn2)c2nnc(C(C)C)n2n1 [compound 83, N6-(1-ethylpropyl)-3-isopropyl-N8-[2-(2-pyridyl)ethyl]-[1,2,4]triazolo[4,3-b]pyridazine-6,8-diamine]
1 to 10	CCCCNc1cc(NCc2ccccn2)c2nnc(C3CC3)n2n1 [compound 191, N6-butyl-3-cyclopropyl-N8-(pyridin-2-ylmethyl)-[1,2,4]triazolo[4,3-b]pyridazine-6,8-diamine]
1 to 10	c1ccc(CNc2cc(NC3CCCCCC3)nn3c(C4CC4)nnc23)nc1 [compound 201, N6-cycloheptyl-3-cyclopropyl-N8-(pyridin-2-ylmethyl)-[1,2,4]triazolo[4,3-b]pyridazine-6,8-diamine]
1 to 10	CCc1nnc2c(NCc3ccccn3)cc(NC(CC)CC)nn12 [compound 59, 3-ethyl-N6-(1-ethylpropyl)-N8-(2-pyridylmethyl)-[1,2,4]triazolo[4,3-b]pyridazine-6,8-diamine]
1 to 10	CCC(CC)Nc1cc(NCc2ccccn2)c2nnc(C3CCC3)n2n1 [compound 63, 3-cyclobutyl-N6-(1-ethylpropyl)-N8-(2-pyridylmethyl)-[1,2,4]triazolo[4,3-b]pyridazine-6,8-diamine]
1 to 10	CCC(CC)Nc1cc(NCCCc2ccccc2)c2nnc(C(C)C)n2n1 [compound 170, N6-(1-ethylpropyl)-3-isopropyl-N8-(3-phenylpropyl)-[1,2,4]triazolo[4,3-b]pyridazine-6,8-diamine]
10 to 100	CCC(CC)Nc1cc(NCc2ccccn2)c2nnc(-c3cccnc3)n2n1 [compound 71, N6-(1-ethylpropyl)-3-(3-pyridyl)-N8-(2-pyridylmethyl)-[1,2,4]triazolo[4,3-b]pyridazine-6,8-diamine]
10 to 100	CCC(CC)Nc1cc(NCc2ccccc2N)c2nnc(C(C)C)n2n1 [compound 77, N8-[(2-aminophenyl)methyl]-N6-(1-ethylpropyl)-3-isopropyl-[1,2,4]triazolo[4,3-b]pyridazine-6,8-diamine]
10 to 100	CC(C)c1nnc2c(NCc3ccccn3)cc(NC3CC(F)(F)C3)nn12 [compound 54, N6-(3,3-difluorocyclobutyl)-3-isopropyl-N8-(2-pyridylmethyl)-[1,2,4]triazolo[4,3-b]pyridazine-6,8-diamine]
10 to 100	CC[C@H](CO)Nc1cc(NCc2ccc(N)cc2)c2nnc(C(C)C)n2n1 [compound 74, (2R)-2-[[8-[(4-aminophenyl)methylamino]-3-isopropyl-[1,2,4]triazolo[4,3-b]pyridazin-6-yl]amino]butan-1-ol]
10 to 100	COCCCNc1cc(NCCCOC)c2nnc(C3CC3)n2n1 [compound 110, 3-cyclopropyl-N6,N8-bis(3-methoxypropyl)-[1,2,4]triazolo[4,3-b]pyridazine-6,8-diamine]
10 to 100	CCCNc1cc(NCc2ccccn2)c2nnc(C3CC3)n2n1 [compound 190, 3-cyclopropyl-N6-propyl-N8-(pyridin-2-ylmethyl)-[1,2,4]triazolo[4,3-b]pyridazine-6,8-diamine]
10 to 100	CC(C)CNc1cc(NCc2ccccn2)c2nnc(C3CC3)n2n1 [compound 194, 3-cyclopropyl-N6-isobutyl-N8-(pyridin-2-ylmethyl)-[1,2,4]triazolo[4,3-b]pyridazine-6,8-diamine]
10 to 100	COCCCNc1cc(NCc2ccccc2)c2nnc(C3CC3)n2n1 [compound 31, N8-benzyl-3-cyclopropyl-N6-(3-methoxypropyl)-[1,2,4]triazolo[4,3-b]pyridazine-6,8-diamine]
< 1	CCC(CC)Nc1cc(Nc2cncnc2)c2nnc(C(C)C)n2n1 [compound 151, 3-isopropyl-N6-(pentan-3-yl)-N8-(pyrimidin-5-yl)-[1,2,4]triazolo[4,3-b]pyridazine-6,8-diamine]
100 to 1000	CC(C)c1nnc2c(NCc3ccc(-c4ccncc4)cc3)cc(N[C@H](CO)[C@@H](C)O)nn12 [compound 108, (2R,3R)-2-[[3-isopropyl-8-[[4-(4-pyridyl)phenyl]methylamino]-[1,2,4]triazolo[4,3-b]pyridazin-6-yl]amino]butane-1,3-diol]
1 to 10	CCC(CC)CNc1cc(NCc2ccccn2)c2nnc(C3CC3)n2n1 [compound 196, 3-cyclopropyl-N6-(2-ethylbutyl)-N8-(pyridin-2-ylmethyl)-[1,2,4]triazolo[4,3-b]pyridazine-6,8-diamine]

IC50 [nM]	Compound
10 to 100	CC[C@@H](CO)Nc1cc(NCc2ccc(Br)cc2)c2nnc(C(C)C)n2n1 [compound 101, (2S)-2-[[8-[(4-bromophenyl)methylamino]-3-isopropyl-[1,2,4]triazolo[4,3-b]pyridazin-6-yl]amino]butan-1-o1]
1 to 10	CCC(CC)Nc1cc(Nc2ccnnc2)c2nnc(C(C)C)n2n1 [compound 149, 3-isopropyl-N6-(pentan-3-yl)-N8-(pyridazin-4-yl)-[1,2,4]triazolo[4,3-b]pyridazine-6,8-diamine]
10 to 100	CC(C)c1nnc2c(NCc3ccccc3)cc(N[C@@H]3CCOC3)nn12 [compound 19, N8-benzyl-3-isopropyl-N6-[(3R)-tetrahydrofuran-3-yl]-[1,2,4]triazolo[4,3-b]pyridazine-6,8-diamine]
1 to 10	CCC(C)Nc1cc(NCc2ccccn2)c2nnc(C3CC3)n2n1 (racemic) [compound 193, N6-(sec-butyl)-3-cyclopropyl-N8-(pyridin-2-ylmethyl)-[1,2,4]triazolo[4,3-b]pyridazine-6,8-diamine]
1 to 10	CCC(CC)CNc1cc(NCC(CC)CC)c2nnc(C(C)C)n2n1 [compound 167, N6,N8-bis(2-ethylbutyl)-3-isopropyl-[1,2,4]triazolo[4,3-b]pyridazine-6,8-diamine]
1 to 10	c1ccc(CNc2cc(NC3CCCC3)nn3c(C4CC4)nnc23)nc1 [compound 199, N6-cyclopentyl-3-cyclopropyl-N8-(pyridin-2-ylmethyl)-[1,2,4]triazolo[4,3-b]pyridazine-6,8-diamine]
1 to 10	CCC(CC)Nc1cc(Nc2ccccc2)c2nnc(C(C)C)n2n1 [compound 45, N6-(1-ethylpropyl)-3-isopropyl-N8-phenyl-[1,2,4]triazolo[4,3-b]pyridazine-6,8-diamine]
< 1	CCC(CC)Nc1cc(NCCc2ccccn2)c2nnc(C3CC3)n2n1 [compound 86, 3-cyclopropyl-N6-(1-ethylpropyl)-N8-[2-(2-pyridyl)ethyl]-[1,2,4]triazolo[4,3-b]pyridazine-6,8-diamine]
100 to 1000	CC(C)c1nnc2c(NCc3ccccc3)cc(NCCOCCOCCN)nn12 [compound 8, N6-[2-[2-(2-aminoethoxy)ethoxy]ethyl]-N8-benzyl-3-isopropyl-[1,2,4]triazolo[4,3-b]pyridazine-6,8-diamine]
1 to 10	CCC(CC)Nc1cc(NCc2ccccn2)c2nnc(C(C)CC)n2n1 (stereo not shown) [compound 67, N6-(1-ethylpropyl)-N8-(2-pyridylmethyl)-3-sec-butyl-[1,2,4]triazolo[4,3-b]pyridazine-6,8-diamine]
10 to 100	COCCCCNc1cc(NCc2ccccc2)c2nnc(C(C)C)n2n1 [compound 14, N8-benzyl-3-isopropyl-N6-(4-methoxybutyl)-[1,2,4]triazolo[4,3-b]pyridazine-6,8-diamine]
1 to 10	CCC(CC)Nc1cc(Nc2cc(OC)ccn2)c2nnc(C(C)C)n2n1 [compound 156, 3-isopropyl-N8-(4-methoxypyridin-2-yl)-N6-(pentan-3-yl)-[1,2,4]triazolo[4,3-b]pyridazine-6,8-diamine]
10 to 100	CC[C@@H](CO)Nc1cc(NCc2ccccn2)c2nnc(C3CC3)n2n1 [compound 212, (S)-2-((3-cyclopropyl-8-((pyridin-2-ylmethyl)amino)-[1,2,4]triazolo[4,3-b]pyridazin-6-yl)amino)butan-1-ol]
1 to 10	CCC(CC)Nc1cc(NCc2cnccn2)c2nnc(C(C)C)n2n1 [compound 94, N6-(1-ethylpropyl)-3-isopropyl-N8-(pyrazin-2-ylmethyl)-[1,2,4]triazolo[4,3-b]pyridazine-6,8-diamine]
< 1	CCC(CC)Nc1cc(Nc2ccc(OC)cn2)c2nnc(C(C)C)n2n1 [compound 155, 3-isopropyl-N8-(5-methoxypyridin-2-yl)-N6-(pentan-3-yl)-[1,2,4]triazolo[4,3-b]pyridazine-6,8-diamine]
1 to 10	CC(C)(C)Nc1cc(NCc2ccccn2)c2nnc(C3CC3)n2n1 [compound 195, N6-(tert-butyl)-3-cyclopropyl-N8-(pyridin-2-ylmethyl)-[1,2,4]triazolo[4,3-b]pyridazine-6,8-diamine]
10 to 100	CCC(CC)Nc1cc(Nc2ncccn2)c2nnc(C3CC3)n2n1 [compound 179, 3-cyclopropyl-N6-(pentan-3-yl)-N8-(pyrimidin-2-yl)-[1,2,4]triazolo[4,3-b]pyridazine-6,8-diamine]
10 to 100	CC(C)c1nnc2c(NCc3ccc(-c4ccccn4)cc3)cc(N[C@H](CO)[C@@H](C)O)nn12 [compound 107, (2R,3R)-2-[[3-isopropyl-8-[[4-(2-pyridyl)phenyl]methylamino]-[1,2,4]triazolo[4,3-b]pyridazin-6-yl]amino]butane-1,3-diol]

Reference: EP4477653A1 (Perha Pharmaceuticals, priority 2023, dated 2024)
